Data as given in article PMC12396409, “Screening and hit evaluation of a microbial metabolite library against the pathogenic Plasmodium falciparum and Toxoplasma gondii parasites” (International Journal for Parasitology: Drugs and Drug …, 2025).
Where two headings read alike, the source gives them in different places.

Assays:
[1] = test system: P. falciparum 3D7 parasites; assay: P. falciparum growth inhibition assay, 1-cycle (72 h treatment), SYBR DNA staining (library screen at 2 μg/mL and dose-response); assay type: cell-based, Plasmodium falciparum
[2] = test system: T. gondii RH strain (RH-Tub-eYFP) tachyzoites; assay: microbe, parasite or virus in culture; assay type: cell-based, Toxoplasma gondii; conditions: 72 h, 72 h
[3] = test system: P. falciparum 3D7 parasites; assay: P. falciparum growth inhibition assay, 2-cycle (120 h treatment), delayed-death screen and dose-response; assay type: cell-based, Plasmodium falciparum
[4] = Toxoplasma gondii, T. gondii, screen at 2 μg/mL, replicate 1, read-out: Tg_72h_%Growth_Rep1
[5] = Toxoplasma gondii, T. gondii, screen at 2 μg/mL, replicate 2, read-out: Tg_72h_%Growth_Rep2
[6] = library screen at 2 μg/mL, 72 h, % growth, replicate 1
[7] = library screen at 2 μg/mL, 72 h, % growth, replicate 2
[8] = library screen at 2 μg/mL, % growth, replicate 1
[9] = library screen at 2 μg/mL, % growth, replicate 2
[10] = library screen at 2 μg/mL, 120 h, % growth, replicate 1
[11] = library screen at 2 μg/mL, 120 h, % growth, replicate 2

CC1=C2C(=CO[C@H](C)[C@H]2C)C(O)=C(C(=O)O)C1=O [Citrinin]
activity at 2 µg/mL ([1]; Plasmodium falciparum, 3D7, 72 h, P. falciparum, 72 h, screen at 2 μg/mL, replicate 1, read-out: Pf_72h_%Growth_Rep1): 89.1% | activity at 2 µg/mL ([1]; Plasmodium falciparum, 3D7, 72 h, P. falciparum, 72 h, screen at 2 μg/mL, replicate 2, read-out: Pf_72h_%Growth_Rep2): 84% | percent parasite growth at 2 µg/mL [2, 4]: 87.8% | percent parasite growth at 2 µg/mL [2, 5]: 82% | activity at 2 µg/mL ([3]; Plasmodium falciparum, 3D7, 120 h, P. falciparum, 120 h, screen at 2 μg/mL, replicate 1, read-out: Pf_120h_%Growth_Rep1): 138% | activity at 2 µg/mL ([3]; Plasmodium falciparum, 3D7, 120 h, P. falciparum, 120 h, screen at 2 μg/mL, replicate 2, read-out: Pf_120h_%Growth_Rep2): 82.5%

CC(C)CCCCCC=CCC(=O)N[C@@H](CC(=O)O)C(=O)N[C@@H]1C(=O)N2CCCC[C@@H]2C(=O)N[C@@H](C(C)C(=O)O)C(=O)N[C@@H](CC(=O)O)C(=O)NCC(=O)N[C@@H](CC(=O)O)C(=O)NCC(=O)N[C@H](C(C)N)C(=O)N[C@@H](C(C)C)C(=O)N2CCC[C@H]2C(=O)NC1C (some centres unmarked) [Aspartocin D]
Pf_72h_%Growth_Rep1 [1, 6]: 103.30% | Pf_72h_%Growth_Rep2 [1, 7]: 89.43% | Tg_72h_%Growth_Rep1 [2, 8]: 85.89% | Tg_72h_%Growth_Rep2 [2, 9]: 91.61% | Pf_120h_%Growth_Rep1 [3, 10]: 152.69% | Pf_120h_%Growth_Rep2 [3, 11]: 104.90%

COC1=C(OC)C(=O)C(C)=C(C)C1=O [Aurantiogliocladin]
Pf_72h_%Growth_Rep1 [1, 6]: 5.55% | Pf_72h_%Growth_Rep2 [1, 7]: 9.01% | Tg_72h_%Growth_Rep1 [2, 8]: 92.07% | Tg_72h_%Growth_Rep2 [2, 9]: 99.65% | Pf_120h_%Growth_Rep1 [3, 10]: 10.46% | Pf_120h_%Growth_Rep2 [3, 11]: -13.06%

Cc1cc(O)cc2oc(=O)c3c(O)cc(O)cc3c12 [Alternariol]
activity at 2 µg/mL ([1]; Plasmodium falciparum, 3D7, library screen at 2 μg/mL, 72 h, % growth, replicate 1, read-out: Pf_72h_%Growth_Rep1): 84.6% | activity at 2 µg/mL ([1]; Plasmodium falciparum, 3D7, library screen at 2 μg/mL, 72 h, % growth, replicate 2, read-out: Pf_72h_%Growth_Rep2): 91.2% | percent parasite growth at 2 µg/mL ([2]; Toxoplasma gondii, library screen at 2 μg/mL, % growth, replicate 1, read-out: Tg_72h_%Growth_Rep1): 37.5% | percent parasite growth at 2 µg/mL ([2]; Toxoplasma gondii, library screen at 2 μg/mL, % growth, replicate 2, read-out: Tg_72h_%Growth_Rep2): 99.9% | activity at 2 µg/mL ([3]; Plasmodium falciparum, 3D7, library screen at 2 μg/mL, 120 h, % growth, replicate 1, read-out: Pf_120h_%Growth_Rep1): 171% | activity at 2 µg/mL ([3]; Plasmodium falciparum, 3D7, library screen at 2 μg/mL, 120 h, % growth, replicate 2, read-out: Pf_120h_%Growth_Rep2): 90.2%

Enniatin A1
Pf_72h_%Growth_Rep1 [1, 6]: 5.31% | Pf_72h_%Growth_Rep2 [1, 7]: 1.97% | Tg_72h_%Growth_Rep1 [2, 8]: -0.69% | Tg_72h_%Growth_Rep2 [2, 9]: 13.13% | Pf_120h_%Growth_Rep1 [3, 10]: 8.66% | Pf_120h_%Growth_Rep2 [3, 11]: 18.71%

C=C[C@]1(C)C[C@@H](OC(=O)CSCCN(CC)CC)[C@]2(C)[C@H](C)CC[C@]3(CCC(=O)[C@H]32)[C@@H](C)[C@@H]1O [Tiamulin, reference compound]
activity at 2 µg/mL ([1]; Plasmodium falciparum, 3D7; P. falciparum, 2 μg/mL, 72 h; read-out: 1) Growth (%) at 72 h): 55% | activity at 2 µg/mL ([1]; Plasmodium falciparum, 3D7, P. falciparum, 72 h, screen at 2 μg/mL, replicate 1, read-out: Pf_72h_%Growth_Rep1): 61.3% | activity at 2 µg/mL ([1]; Plasmodium falciparum, 3D7, P. falciparum, 72 h, screen at 2 μg/mL, replicate 2, read-out: Pf_72h_%Growth_Rep2): 48.7% | IC50 ([1]; Plasmodium falciparum, 3D7, 72 h treatment, mean ± S.D., n ≥ 3, read-out: IC50 (μM), P. falciparum): > 1 µM | percent parasite growth at 2 µg/mL [2, 4]: 55.8% | percent parasite growth at 2 µg/mL [2, 5]: 29.4% | IC50 ([2]; Toxoplasma gondii, RH strain, mean ± S.D., n ≥ 3, read-out: IC50 (μM), T. gondii (converted)): > 1 µM | Screen (T. gondii) ([2]; library screen at 2 μg/mL, RH strain): I | delayed-death activity in the 120 h screen against P. falciparum ([3]; 2 μg/mL, criteria: ≥40 % growth at 72 h, ≤20 % growth at 120 h, at least 5-fold): delayed-death activity | 3) Fold change (72 h/120 h) ([3]; P. falciparum, growth at 72 h / growth at 120 h, 2 μg/mL): 7.0 | IC50 ([3]; Plasmodium falciparum, 3D7, read-out: IC50, P. falciparum, 120 h dose-response (delayed-death)): ~1000 nM | activity at 2 µg/mL ([3]; Plasmodium falciparum, 3D7; P. falciparum, 2 μg/mL, 120 h; read-out: 2) Growth (%) at 120 h): 7.81% | activity at 2 µg/mL ([3]; Plasmodium falciparum, 3D7, P. falciparum, 120 h, screen at 2 μg/mL, replicate 1, read-out: Pf_120h_%Growth_Rep1): 6.75% | activity at 2 µg/mL ([3]; Plasmodium falciparum, 3D7, P. falciparum, 120 h, screen at 2 μg/mL, replicate 2, read-out: Pf_120h_%Growth_Rep2): 8.86%

CC[C@@H](O)[C@@](C)(O)[C@@H]1OC(=O)[C@H](C)[C@@H](O[C@H]2C[C@@](C)(OC)[C@@H](O)[C@H](C)O2)[C@H](C)[C@@H](O[C@@H]2O[C@H](C)C[C@H](N(C)C)[C@H]2O)[C@@]2(C)CC(C)=C(O2)[C@@H]1C [Pseudoerythromycin A enol ether]
Pf_72h_%Growth_Rep1 ([1]; P. falciparum, 72 h, parasite screen 2 μg/mL, % growth, replicate 1): 72.76% | Pf_72h_%Growth_Rep2 ([1]; P. falciparum, 72 h, parasite screen 2 μg/mL, % growth, replicate 2): 82.73% | Tg_72h_%Growth_Rep1 ([2]; T. gondii, parasite screen 2 μg/mL, % growth, replicate 1): 127.77% | Tg_72h_%Growth_Rep2 ([2]; T. gondii, parasite screen 2 μg/mL, % growth, replicate 2): 87.62% | Pf_120h_%Growth_Rep1 ([3]; P. falciparum, 120 h, parasite screen 2 μg/mL, % growth, replicate 1): 72.95% | Pf_120h_%Growth_Rep2 ([3]; P. falciparum, 120 h, parasite screen 2 μg/mL, % growth, replicate 2): 110.79%

CCCCCCCCCC[C@@H](O)C[C@]1(O)O[C@H](CC(O)C(O)C(O)C(O)C(O)CC(O)CC(O)CC(O)CC(O)C(C)C(O)C(C)C(O)CC(O)C(C)C(O)C(O)C[C@H](C)C[C@H](C)/C=C(C)/C(O)=C2\C(=O)CN(C)C2=O)[C@@H](O)[C@H](O)[C@@H]1O (some centres unmarked) [Blasticidin A]
Pf_72h_%Growth_Rep1 ([1]; P. falciparum, 72 h, screen at 2 μg/mL, replicate 1): 84.79% | Pf_72h_%Growth_Rep2 ([1]; P. falciparum, 72 h, screen at 2 μg/mL, replicate 2): 87.65% | Tg_72h_%Growth_Rep1 ([2]; T. gondii, screen at 2 μg/mL, replicate 1): 83.39% | Tg_72h_%Growth_Rep2 ([2]; T. gondii, screen at 2 μg/mL, replicate 2): 93.60% | Pf_120h_%Growth_Rep1 ([3]; P. falciparum, 120 h, screen at 2 μg/mL, replicate 1): 135.50% | Pf_120h_%Growth_Rep2 ([3]; P. falciparum, 120 h, screen at 2 μg/mL, replicate 2): 87.28%
